# Patent US20170298051A1, “ACTIVATOR OF ADIPONECTIN RECEPTOR” (THE UNIVERSITY OF TOKYO, priority 2013, published 2017)
# Tests used:
# mice on a HF diet = experiment: Hyperinsulinemic euglycemic clamp study in mice on a HF diet; type: in vivo
# Method: Clamp studies were carried out as described previously^a,b, with slight modifications. In brief, 2-3 days before the study, an infusion catheter was inserted into the right jugular vein under general anesthesia with sodium pentobarbital. Studies were performed on mice under conscious and unstressed conditions after a 6 h fast. A primed continuous infusion of insulin (Humulin R, Lilly) was given (10.0 milliunits/kg/min),and the blood glucose concentration, monitored every 5 min, was maintained at 120 mg/dl by administration of glucose (5 g of glucose per 10 ml enriched to 20% with [6,6-^2H2] glucose (Sigma)) for 120 min. Blood was sampled via tail tip bleeds at 90, 105, and 120 min for determination of the rate of glucose disappearance (Rd). Rd was calculated according to nonsteady-state equations, and endogenous glucose production (EGP) was calculated as the difference between Rd and exogenous glucose infusion rates^a,b,c.
# mice fed a HF diet = experiment: Effects on lipid metabolism: plasma triglycerides and free fatty acid in mice fed a HF diet; type: in vivo
# Method: (§1) Mice were 6-10 week of age at the time of the experiment. They were housed in cages and maintained on a 12 hr light-dark cycle.
# (§2) Plasma glucose levels were determined by using a glucose B-test (Wako Pure Chemical Industries). Plasma insulin was measured with an insulin immunoassay (Shibayagi). Plasma NEFAs (Wako Pure Chemical Industries) were assayed by enzymatic methods.
# Human AdipoR2 = biological target: T1, Human AdipoR2 (Homo sapiens, UniProt Q86V24); experiment: Surface plasmon resonance, affinity for AdipoR2; type: binding; settings: SPR
# T1 construct: made in house
# T1 sequence (Q86V24 1-386): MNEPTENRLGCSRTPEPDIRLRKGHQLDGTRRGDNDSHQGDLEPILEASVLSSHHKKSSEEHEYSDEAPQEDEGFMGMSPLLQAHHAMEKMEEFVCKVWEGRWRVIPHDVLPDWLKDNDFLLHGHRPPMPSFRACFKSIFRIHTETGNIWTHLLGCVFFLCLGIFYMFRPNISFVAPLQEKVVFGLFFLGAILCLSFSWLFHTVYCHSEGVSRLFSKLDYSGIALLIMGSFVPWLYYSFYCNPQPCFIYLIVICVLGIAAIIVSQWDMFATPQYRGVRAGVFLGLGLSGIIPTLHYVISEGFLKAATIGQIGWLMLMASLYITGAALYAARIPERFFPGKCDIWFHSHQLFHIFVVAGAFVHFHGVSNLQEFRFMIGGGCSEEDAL
# Method: (§3) Surface plasmon resonance measurements were performed by a BIAcore X100 system (GE Healthcare) and sensor chip SA (GE Healthcare). Human AdipoR1 and AdipoR2 were expressed with the baculovirus system, and purified to homogeneity. The AdipoR1 and AdipoR2 samples were then reconstituted into egg-phosphatidylcholine liposomes containing biotinyl phosphatidylethanolamine (Avanti), as previously reported^a. Mouse full-length adiponectin was generated as previously described^b,c,d,e. AdipoR1 and AdipoR2 were immobilized onto a sensor chip SA to levels of 2,500-3,000 response units (RU) using standard immobilization protocols (GE Healthcare).
# (§4) Experiments were performed at 25° C. using AdipoRon (0.49-31.25 μM) and adiponectin (1.5 ng-3.75 μg) and using electrophoresis buffer (20 mM Hepes (pH 7.4), 200 mM NaCl, 10% glycerol, […] surfactant P20). Biacore X100 Evaluation Software was used to determine the equilibrium dissociation constant (KD) of the compound or proteins.
# db/db mice = experiment: TG content, oxidative stress and inflammation in insulin target tissues in db/db mice; type: in vivo
# Method: Mitochondrial content assays were carried out as described previously^a,b, with slight modifications. For quantification of mitochondrial content, we used mtDNAas previously described^c.
# Real-time PCR was carried out according to the method described previously^a,b,c. Total RNA was prepared from cells or tissues with Trizol (Invitrogen) according to the manufacturer's instructions. We used a real-time PCR method to quantify the mRNAs^19, with slight modifications.
# Skeletal muscle homogenates were extracted, and tissue triglyceride content was determined as described previously^a-c, with some modifications. To investigate whether oxidative stress was increased, we measured lipid peroxidation, a marker of oxidative injury, as represented by plasma thiobarbituric acid reactive substance (TBARS) as described previously^4. Briefly, tissue samples were homogenized in a buffer solution containing 50 mM Tris-HCl (pH 7.4) and 1.15% KCl, and then centrifuged. The supernatant was used for the assay. The levels of lipid peroxidation in tissue homogenate and plasma were measured in terms of the amount of TBARS using the LPO test (Wako Pure Chemical Industries).
# [1] = test system: HF diet-induced obese mice; experiment: Oral glucose tolerance test and insulin tolerance in HF diet-induced obese mice; type: in vivo; settings: WT mice on HF diet, oral 50 mg/kg, 10 days
# Method: The original Adipor1^+/−/Adipor2^+/− mice (C57BL/6 and 129/Sv mixed background)^a were backcrossed with C57B1/6 mice more than seven times. All experiments in this study were conducted on male littermates.
# as §1, §2
# The oral glucose tolerance test (OGTT) and insulin tolerance test (ITT) were conducted as previously described^a,b with slight modifications. The areas of the glucose and insulin curves were calculated by multiplying the cumulative mean height of the glucose values (1 mg/ml=1 cm) and insulin values (1 ng/ml=1 cm), respectively, by time (60 min=1 cm)^c,a. The insulin resistance index was calculated from the product of the areas of glucose and insulin×10^−2 in the glucose tolerance test. The results are expressed as the percentage of the value respect to control littermates.
# AdipoR1 = biological target: T2, AdipoR1 (Homo sapiens, UniProt Q96A54); experiment: Surface plasmon resonance, affinity for AdipoR1; type: binding; set-up: made in house; settings: SPR
# T2 sequence (Q96A54 1-375): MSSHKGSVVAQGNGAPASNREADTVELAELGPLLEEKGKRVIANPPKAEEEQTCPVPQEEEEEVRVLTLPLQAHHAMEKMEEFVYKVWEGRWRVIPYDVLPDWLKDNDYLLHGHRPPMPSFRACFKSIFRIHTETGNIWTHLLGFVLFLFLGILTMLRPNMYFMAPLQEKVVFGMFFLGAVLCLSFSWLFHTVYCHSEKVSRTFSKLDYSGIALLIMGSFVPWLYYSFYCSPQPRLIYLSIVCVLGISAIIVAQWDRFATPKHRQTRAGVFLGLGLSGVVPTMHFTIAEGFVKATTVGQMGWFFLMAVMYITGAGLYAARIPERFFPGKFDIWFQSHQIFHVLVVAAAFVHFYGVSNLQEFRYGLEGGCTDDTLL
# Method: as §3, §4
# [2] = Adipor1/r2 double-knockout mice
# [3] = WT mice on HF diet, 10 days of administration
# [4] = WT mice fed a HF diet, oral 50 mg/kg, 10 days
# [5] = 25° C., read-out: equilibrium dissociation constant (KD)
compound,measurement,setting,value
"O=C(COc1ccc(C(=O)c2ccccc2)cc1)NC1CCN(Cc2ccccc2)CC1 [Compound 73, 2-(4-benzoyl-phenoxy)-N-(1-benzylpiperidin-4-yl)acetamide]","GIR, EGP and Rd",mice on a HF diet; [2],None of these parameters were improved
same,endogenous glucose production (EGP),mice on a HF diet; [3],significantly suppressed
same,glucose disposal rate (Rd),mice on a HF diet; [3],significantly increased
same,glucose infusion rate (GIR),mice on a HF diet; [3],significantly increased
same,reduction of plasma TG and FFA,mice fed a HF diet; [2],not observed
same,plasma concentration of free fatty acid (FFA),mice fed a HF diet; [4],reduced
same,plasma concentration of triglycerides (TG),mice fed a HF diet; [4],reduced
same,Rmax,Human AdipoR2,8.6 RU
same,Kd,Human AdipoR2; [5],3100 nM
same,TG content in the liver,db/db mice,significantly reduced TG content
same,expression levels of genes encoding pro-inflammatory cytokines in the liver,db/db mice,reduced expression levels
same,"expression levels of genes encoding pro-inflammatory cytokines, macrophage markers, M1 macrophage markers in the WAT",db/db mice,reduced the expression levels
same,expression of Pparα and its target genes in the liver,db/db mice,increased the expression
same,"expressions of Ppargc1a, Pck1 and G6pc in the liver",db/db mice,significantly decreased expressions
same,oxidative stress in the liver,db/db mice,significantly reduced
same,TG content and TBARS in skeletal muscles,db/db mice; oral,decreased TG content and TBARS
same,levels of Acadm and Sod2 in skeletal muscles,db/db mice; oral,significantly increased
same,levels of genes involved in mitochondrial biogenesis functions and DNA content in skeletal muscles,db/db mice; oral,significantly increased
same,"fasting plasma glucose and insulin levels, glucose and insulin responses during OGTT",[1],significant decrease
same,insulin sensitivity,[1],improved insulin sensitivity
same,Rmax,AdipoR1,14.6 RU
same,Kd,AdipoR1; [5],1800 nM
